Measurements published in US9452155B2, “Injectable antibiotic formulations and their methods of use” (BAYER NEW ZEALAND LTD, priority 2012, dated 2016).

Legend:
[1] = assay type: physicochemical
Excerpt: Thus the long term stability of PNT with triacetin (or other oily vehicles) is highly unexpected. […] After one month in accelerated stability the components of the composition appeared to degrade rapidly with a resulting colour change from an off-white to a dark yellow with dark brown sludge forming. The degradation components appeared to include a gas, resulting in the container swelling from the resultant pressure. Accordingly, the formulations described in CN 1517090 are not known to be storage stable.

[2] = 20° C.; cited from earlier work
[3] = cited from earlier work

CC1(C)S[C@@H]2[C@H](NC(=O)Cc3ccccc3)C(=O)N2[C@H]1C(=O)O.CCN(CC)CCOC(=O)c1ccc(N)cc1 [procaine penicillin]
chemical stability on storage in oily vehicles [1]: chemically unstable
chemical stability when substituted for penethamate in the preferred formulation [1]: chemically unstable

CC1(C)S[C@@H]2[C@H](NC(=O)Cc3ccccc3)C(=O)N2[C@H]1C(=O)O [benzylpenicillin]
chemical stability on storage in oily vehicles [1]: chemically unstable

CC(=O)OCC(COC(C)=O)OC(C)=O [Triacetin]
viscosity [2]: approximately 23 mPas

CCN(CC)CCOC(=O)[C@@H]1N2C(=O)[C@@H](NC(=O)Cc3ccccc3)[C@H]2SC1(C)C.I [penethamate hydroiodide]
time to peak serum levels (measured as dissociated penicillin G) ([3]; after injection (Friton 2003)): 3.76 h
share of the active drug present in its hydrolysed form (benzylpenicillin) at equilibrium ([3]; blood pH (7.2), after intramuscular administration): 91.8%
